The values below are quoted from earlier work in US20260240758A1, “INJECTABLE PHENYLEPHRINE COMPOSITIONS” (Hikma Pharmaceuticals USA Inc., priority 2022, published 2026).

For this series the following is noted: phenylephrine HCl 400 μg/ml and 200 μg/ml, PVC bags, 60 days at room temperature.

Consider `CNC[C@H](O)c1cccc(O)c1` [phenylephrine], for which the phenylephrine degraded is recorded as 4-5%.
